According to patent US9078890B2, “Use of koumine and its homologues in preparation of medicament for treatment of autoimmune diseases of involved bones and joints” (priority 2011, dated 2015):
Marks after values point to notes of the source that are not given here.

What was measured:
adjuvant arthritis mice [1] = test: Adjuvant arthritis mice: condition and body weight; type: in vivo, Kunming mice
Protocol: (§1) BCG was inactivated in water bath at 80° C., and fully emulsified along with complete Freund's adjuvant to form complete Freund's adjuvant emulsion containing 5 mg/ml BCG, preserved at 4° C., and shake well before use. The Kunming mice were divided into a modeling group and a false modeling group. According to the method recited in the literature [Rasool M, Sabina E P, Lavanya B. Anti-inflammatory effect of Spirulina fusiformis on adjuvant-induced arthritis in mice. Biol Pharm Bull. 2006, 29(12):2483-7], for the modeling group, the model was prepared by intradermal injection of 20 ul the emulsion under the plantar surface of right paws after the mice was narcotized; for the false modeling group, the emulsion was replaced with physiological saline. For the modeling group, the animals were screened on Day 8 after injection: the mice with the injected paw thickness increased >0.5 mm and thermal hyperalgesia occurred (paw thermal withdrawal latency <8 second) were selected as experimental subjects. The selected mice were divided into 5 groups randomly: low, middle, high dose treatment group (0.8, 4, 20 mg/kg); indomethacin positive control group (10 mg/kg); negative control group (physiological saline), each comprising 12 animals. […]

adjuvant arthritis mice [2] = test: Adjuvant arthritis mice: phlogogenic paw swelling (paw thickness); type: in vivo, Kunming mice; conditions: koumine 0.8, 4, 20 mg/kg intragastric once daily; Day 4-18 after inflammation
Protocol: as §1, with “subjects.” for “subjects. The selected mice were divided into 5 groups randomly: low, middle, high dose treatment group (0.8, 4, 20 mg/kg); indomethacin positive control group (10 mg/kg); negative control group (physiological saline), each comprising 12 animals.”
According to Methodology of Pharmacological Experiment (Shuyun Xu, Rulian Bian: Methodology of Pharmacological Experiment [M], 3rd Ed., People's Medical Publishing House: 912-913), paw thickness was selected as a paw swelling index and was measured using vernier caliper, measuring timing is the same as above, each measurement repeats 3 times and the average was taken (similarly hereinafter).

[3] = tested on: serum type II collagen antibody; test: Type II collagen-induced arthritis rat: serum type II collagen antibody (ELISA); type: in vivo, Wistar rat; conditions: koumine 0.6, 3, 15 mg/kg intragastric once daily 10 days; after intervention finished; dose dependent
Protocol: (§2) Under aseptic conditions, 10 mg chicken type II collagen protein was fully mixed with 5 ml 10 mM glacial acetic acid solution, and stirred overnight in refrigerator at 4° C. to fully dissolve it. It was mixed with complete Freund's adjuvant in equal volume in ice bath to fully emulsify into an emulsion with a collagen concentration of 1 mg/ml.
(§3) Wistar rats are divided into a modeling group and a false modeling group. After the modeling group rats were narcotized with intraperitoneal injection of pentobarbital, the above emulsion was injected intracutaneously at 3 to 4 positions at back, tail root or the like, 0.3 ml for each, an primary immunity was carried out. After 7 days, a secondary immunity was carried out, the emulsifying agent complete Freund's adjuvant of initial immunity was replaced with incomplete Freund's adjuvant, 0.1 ml the emulsion was injected under sevoflurane inhalation anesthesia wherein the injection position is different from the last time. In false modeling group, the emulsion was replaced with solvent glacial acetic acid solution.
Successfully modeled rat in the modeling group were randomly divide into 5 groups: low, middle, high-dose koumine treatment group, positive control group, negative control group, 10 rats for each group. […]

[4] = tested on: type II collagen-induced arthritis rat; test: Type II collagen-induced arthritis rat: thermal hyperalgesia (thermal withdrawal latency); type: in vivo, Wistar rat; conditions: for Thermal stimulus withdrawal latency, Intervention Day 2: intervention Day 2, 1 hour after administration; for Thermal stimulus withdrawal latency, Intervention Day 4: intervention Day 4, 1 hour after administration; for Thermal stimulus withdrawal latency, Intervention Day 6: intervention Day 6, 1 hour after administration; for Thermal stimulus withdrawal latency, Intervention Day 8: intervention Day 8, 1 hour after administration; for Thermal stimulus withdrawal latency, Intervention Day 10: intervention Day 10, 1 hour after administration
Protocol: as §2, §3
Successfully modeled rat in the modeling group were randomly divide into 5 groups: low, middle, high-dose koumine treatment group, positive control group, negative control group, 10 rats for each group. Beginning from Day 21 after modeling, corresponding intervention was carried out as following in 10 days continuously: 0.6, 3, 15 mg/kg koumine were intragastrically administrated to the low, middle, high-dose koumine treatment group respectively, 1 time every day; 1 mg/kg amethopterin was administrated to the positive control group, 1 time every 3 days, equal volume of physiological saline was administrated for the remained days; equal volume of physiological saline was administrated to the negative control group.
(§4) 1 hour after intragastric administration, the thermal withdrawal latency of each group was determined by the photo-thermal dolorimeter; the mechanical pain threshold of rats of each group was determined by Von-frey electromechanical pain threshold detector, thus the condition of thermal hyperalgesia and mechanical hyperalgesia of rats of each group was observed.

[5] = tested on: type II collagen-induced arthritis rat; test: Type II collagen-induced arthritis rat: mechanical hyperalgesia (Von-frey mechanical pain threshold); type: in vivo, Wistar rat; conditions: koumine 0.6, 3, 15 mg/kg intragastric; dose-effect relationship
Protocol: as §2
as §3, with “In false modeling group, the emulsion was replaced with solvent glacial acetic acid solution.” left out
as §4

in vivo = conditions: mouse, sc
[6] = koumine 0.6 mg/kg intragastric once daily
[7] = koumine 3 mg/kg intragastric once daily
[8] = koumine 15 mg/kg intragastric once daily

C=CC12CN(C)C3CC14C(=Nc1ccccc14)C1CC2C3CO1 (stereo not shown) [Koumine]
Effect on body weight of adjuvant arthritis mice (FIG. 1) (adjuvant arthritis mice [1]; koumine 0.8, 4, 20 mg/kg intragastric once daily, Day 4-18 after inflammation): dose dependent antagonistic effect on body weight reducing | Food intake and activity after inflammation (adjuvant arthritis mice [1]; koumine treatment group 0.8, 4, 20 mg/kg intragastric, negative control decreased obviously): no obvious change was observed | Effect on phlogogenic paw thickness (FIG. 2) (adjuvant arthritis mice [2]): reduces the phlogogenic paw thickness of adjuvant arthritis mice in dose and time-dependent manner | Effect on serum type II collagen antibody level (FIG. 5) [3]: significantly antagonistic effect on type II collagen antibody level increase | Thermal stimulus withdrawal latency, Before intervention [4, 6]: 7.50 ± 1.34 s | Thermal stimulus withdrawal latency, Intervention Day 2 [4, 6]: 7.81 ± 1.39 s | Thermal stimulus withdrawal latency, Intervention Day 4 [4, 6]: 8.42 ± 1.24 s | Thermal stimulus withdrawal latency, Intervention Day 6 [4, 6]: 10.30 ± 0.73**^★ second | Thermal stimulus withdrawal latency, Intervention Day 8 [4, 6]: 8.96 ± 0.81 s | Thermal stimulus withdrawal latency, Intervention Day 10 [4, 6]: 8.62 ± 2.21 s | Thermal stimulus withdrawal latency, Before intervention [4, 7]: 8.03 ± 1.98 s | Thermal stimulus withdrawal latency, Intervention Day 2 [4, 7]: 8.07 ± 1.86 s | Thermal stimulus withdrawal latency, Intervention Day 4 [4, 7]: 9.16 ± 1.18 s | Thermal stimulus withdrawal latency, Intervention Day 6 [4, 7]: 11.18 ± 2.03**^★ second | Thermal stimulus withdrawal latency, Intervention Day 8 [4, 7]: 10.40 ± 1.74 s | Thermal stimulus withdrawal latency, Intervention Day 10 [4, 7]: 11.62 ± 1.21**^★ second | Thermal stimulus withdrawal latency, Before intervention [4, 8]: 7.68 ± 2.48 s | Thermal stimulus withdrawal latency, Intervention Day 2 [4, 8]: 9.41 ± 0.68 s | Thermal stimulus withdrawal latency, Intervention Day 4 [4, 8]: 10.82 ± 1.07 s | Thermal stimulus withdrawal latency, Intervention Day 6 [4, 8]: 12.98 ± 1.13**^★ second | Thermal stimulus withdrawal latency, Intervention Day 8 [4, 8]: 13.44 ± 1.72 s | Thermal stimulus withdrawal latency, Intervention Day 10 [4, 8]: 13.87 ± 1.26**^★ second | Effect on thermal stimulus withdrawal latency (summary of Table 3) ([4]; koumine 0.6, 3, 15 mg/kg intragastric, dose-effect relationship): can significantly extend the thermal stimulus withdrawal latency | Effect on mechanical pain threshold (summary of Table 4) [5]: improve mechanical pain threshold | LD50 (in vivo): 99 mg/kg
